Data taken from US5840867A, “Aptamer analogs specific for biomolecules” (Gilead Sciences, Inc., priority 1994, dated 1998).

Experiments:
[1] = test system: thrombin; assay: Clotting time for thrombin-catalyzed conversion of fibrinogen to fibrin; format: biochemical; details: 7-mer at 20 μM; thrombin 10 nM; thrombin alone 24 sec
Experimental: Clotting time for the thrombin-catalyzed conversion of fibrinogen (2.0 mg/ml in selection buffer) to fibrin at 37° C. was measured using a precision coagulation timer apparatus (Becton-Dickinson, Cat. Nos. 64015, 64019, 64020). Thrombin (10 nM) incubated with fibrinogen alone clotted in 40 sec, thrombin incubated with fibrinogen and P1 nuclease (Boehringer-Mannheim, Indianapolis, Ind.) clotted in 39 sec, thrombin incubated with fibrinogen and aptamer clone #5 (200 nM) clotted in 115 sec, and thrombin incubated with fibrinogen, clone #5 (200 nM) and P1 nuclease clotted in 40 sec. All incubations were carried out at 37° C. using reagents prewarmed to 37° C. Aptamer DNA or, when present, P1 nuclease, was added to the fibrinogen solution prior to addition of thrombin.
Inhibition of thrombin activity was studied using a consensus-related sequence 7-mer, 5' GGTTGGG 3' (SEQ ID NO:15), or a control 7-mer with the same base composition but different sequence (5' GGGGGTT 3' ) (SEQ ID NO:16). Clotting times were measured using the timer apparatus as above. The thrombin clotting time in this experiment was 24 sec using thrombin alone (10 nM), 26 sec with thrombin and the control sequence at 20 μM and 38 sec with thrombin plus the consensus sequence at 20 μM, indicating specificity for thrombin inhibition at the level of the 7-mer.

[2] = Half-life in rats; format: in vivo, rat; details: injected through catheter
Experimental: (§1) A 15-mer single-stranded deoxynucleotide, 5' GGTTGGTGTGGTTGG 3' (SEQ ID NO:19), identified as a consensus sequence from 30 thrombin aptamer clones as described in Example 4 above was used. Young adult rats of mixed gender and strain were used. The animals were anesthetized and a diester of the 15-mer was injected through a catheter in 200 μl volumes (in 20 mM phosphate buffer, pH 7.4, 0.15M NaCl) at two concentrations, so that the final concentration of 15-mer in the blood was about 0.5 and 5.0 μM respectively, although the exact concentration depends on the volume of distribution which is unknown for this oligonucleotide. These values are 10 to 100 times greater than the human in vitro Kd value. No heparin was used for catheterization.
(§2) At 0, 5, 20 and 60 minutes, blood was withdrawn from the animals (approx. 500 μl aliquots) and transferred into tubes containing 0.1 volume citrate buffer and centrifuged. Rat plasma was removed and tested in a thrombin clotting-time assay. Six animals were used at each concentration,and three animals were injected with the control carrier solution containing no 15-mer.
(§3) Thus, the 15-mer in blood withdrawn from rats 5 minutes post-injection was able to inhibit exogenously added human thrombin. […] The half-life of the 15-mer in rats appears to be about 5 minutes or less.

[3] = test system: human thrombin; assay: Thrombin clotting-time assay on rat plasma after injection; format: in vivo; details: rats, injected through catheter
Experimental: as §1, §2

[4] = test system: thrombin; assay: Steady-state inhibition kinetics by clotting time assay (Ki); format: biochemical; details: constant thrombin, varying fibrinogen concentration
Experimental: The inhibition constants (Ki s) and mode of inhibition of the aptamer analogs were determined through steady-state inhibition kinetics using a clotting time assay with constant thrombin concentration and varying the fibrinogen concentration in the presence of aptamer, control DNA, or no DNA. […] The data is consistent with a non-competitive mode of inhibition.

[5] = test system: thrombin; assay: Extent of thrombin inhibition with varying DNA concentration; format: biochemical
Source text: Independent verification of the Ki for the nonmodified 15-mer was made by determining the extent of thrombin inhibition with varying DNA concentration.

[6] = test system: rat blood coagulation; assay: APTT test after injection in rats; format: in vivo; details: 5 minute time point
Experimental: as §3

Substance | Ki [4] | other results
5' GGGGGTT 3' (chemistry not given here) [reference compound] |  | Clotting time [1]: 26 s
5' GGTTGGG 3' (chemistry not given here) |  | Clotting time [1]: 38 s
5' GGTTGGTGTGGTTGG 3' | 20 nM | half-life [2]: ≤ 5 min; clotting time of rat plasma ([3]; about 0.5 and 5.0 μM in blood, 5 minute time point): prolonged clotting time; activity in clotting-time assay of rat plasma ([3]; 20 minutes): Little or no activity; concentration giving 50% inhibition of thrombin activity [5]: approximately the same concentration as the derived Ki; APTT test [6]: inhibited rat blood coagulation
G*G*T*T*G*G*T*G*T*G*G*T*T*G*G | 280 nM | 
GG(dU)TGGTGTGG(dU)TGG (DNA GGNTGGTGTGGNTGG) [15-mer thrombin aptamer analog with uracil (dU) in place of thymine] | 80 nM | 
GGTTGG(dU)G(dU)GGTTGG (DNA GGTTGGNGNGGTTGG; dU in place of thymine) [15-mer thrombin aptamer analog with uracil (dU) in place of thymine] | 15 nM | 
GGTTGGTGTGGTT*G*G | 40 nM | 
GGTTGGTGTGGTTGG#G#T (DNA GGTTGGTGTGGTTGGGT; MEA linkages, chemistry not fully specified) [closely related 17-mer thrombin aptamer analog; # indicates a MEA linkage] | 35 nM | 
GGTTGGTGTGGTU'GG (DNA GGTTGGTGTGGTNGG; 5-pentynyluracil, further chemistry not given here) [15-mer thrombin aptamer analog; U' indicates 5-pentynyluracil] | 20 nM | 
